This note sets out measurements from article PMC7662308, “Hevein-Like Antimicrobial Peptides Wamps: Structure–Function Relationship in Antifungal Activity and Sensitization of Plant Pathogenic Fungi to Tebuconazole by WAMP-2-Derived Peptides” (International Journal of Molecular Sciences, 2020).

Test [1] has as its system B. sorokiniana. It counts as cell-based, Bipolaris sorokiniana. The text has this:
(§1) Conidia of Fusarium spp., A. alternata, B. sorokiniana, and C. cucumerinum were collected from the surface of their colonies on potato dextrose agar by flooding the mycelium with sterilized distilled water (SDW) and gently rubbing with a glass rod, while P. nodorum spores were obtained by washing off wheat kernels infested with the pathogen. The spores (conidia) were suspended in SDW (control) or in SDW-dissolved WAMPs, WAMP-2-derived peptides, the fungicide or their mixtures to a final concentration of 10^4–10^5 spores/mL and incubated at 20–22 °C for 5–6 or 12–16 h depending on the pathogen species. The number of germinated and non-germinated spores (500 ones of each pathogen per treatment) was counted in wells of a polystyrene culture plate using an inverted microscope followed by calculation of the percent of inhibition of the spore germination as compared to control.
(§2) For each pathogen, tests on evaluation of antifungal or sensitizing activity of WAMP homologues or their peptides (three replications per treatment, 500 counted conidia in each one) included at least two independent experimental series. Mean values, standard deviations (SD), standard errors (SE), and the significance of differences (p ≤ 0.05) of the means between treatments and controls (t-test for the independent variables) were determined using […] v. 6.1 software (StatSoft Inc., Tulsa, OK, USA).

Test [2] deals with A. alternata. It counts as cell-based, Alternaria alternata.
Text: as §1, §2

Another test relates to C. cucumerinum. It counts as cell-based, Cladosporium cucumerinum.
Text: as §1, §2

A further test concerns F. oxysporum. In kind it is cell-based, Fusarium oxysporum.
Text: as §1, §2

For test [3], the system named is F. culmorum. Kind of test: Inhibition of spore (conidia) germination, microplate assay. It counts as cell-based, Fusarium culmorum. Conditions: for IC50: WAMP-2-derived synthetic peptides, spore germination; for Inhibition of conidium germination: peptide alone, 400 μg/mL, mean of three experiments.
Text: as §1, §2

For test [4], the system named is P. nodorum. In kind it is cell-based, Parastagonospora nodorum.
Text: as §1, §2

The test system of test [5] is F. avenaceum. Kind of test: Inhibition of spore (conidia) germination, microplate assay. It counts as cell-based, Fusarium avenaceum. The settings on record: for IC50: WAMP-2-derived synthetic peptides, spore germination.
Text: as §1, §2

In test [6] the test system is B. sorokiniana. Nature of the test: Checkerboard sensitization assay, WAMP-2 fragment with Folicur EC 250 (tebuconazole), spore germination. It counts as cell-based, Bipolaris sorokiniana. The settings on record: effective tebuconazole–WAMP-2 fragment composition; FFCI ≤ 0.5 = synergy; MFC by probit analysis.
Text: as §1, with “control. […]” for “control.”
(§3) The fragments were tested at concentrations ranging between 5, 10 and 50 μg/mL against B. sorokiniana, A. alternata or other cereal-pathogenic fungi (F. culmorum, F. avenacenum and P. nodorum), respectively, to concentrations that produced the inhibitory effect of ≤50%. The sub-fungicidal concentrations of tebuconazole were preliminarily determined for each pathogen through serial double or fivefold dilutions. […]

In test [7] the test system is F. culmorum. Described as above. It counts as cell-based, Fusarium culmorum. Conditions: effective tebuconazole–WAMP-2 fragment composition; FFCI ≤ 0.5 = synergy; MFC by probit analysis.
Text: as §1, with “control. […]” for “control.”
as §3

The subject of test [8] is F. avenaceum. The description is as above. It counts as cell-based, Fusarium avenaceum. The settings on record: effective tebuconazole–WAMP-2 fragment composition; FFCI ≤ 0.5 = synergy; MFC by probit analysis.
Text: as §1, with “control. […]” for “control.”
as §3

The test system of test [9] is A. alternata.
Text: as §1, with “control. […]” for “control.”
as §3

Test [10] concerns P. nodorum. Nature of the test: Checkerboard sensitization assay, WAMP-2 fragment with Folicur EC 250 (tebuconazole), spore germination. In kind it is cell-based, Parastagonospora nodorum. The settings on record: effective tebuconazole–WAMP-2 fragment composition; FFCI ≤ 0.5 = synergy; MFC by probit analysis.
Text: as §1, with “control. […]” for “control.”
as §3

[11] abbreviates: WAMP-2-derived synthetic peptides, spore germination.
The mark [12] stands for this setting: peptide alone, 400 μg/mL, mean of three experiments.

Converted amounts (≈) assume the structure as drawn. Where two headings read alike, the source gives them in different places. Residues, ends and D or L forms follow the SMILES beside them.

Regarding `N=C(N)NCCC[C@H](NC(=O)[C@H](CS)NC(=O)CNC(=O)[C@H](CCCNC(=N)N)NC(=O)[C@H](CS)NC(=O)[C@H](CCC(N)=O)NC(=O)[C@H](CO)NC(=O)[C@H](CCC(N)=O)NC(=O)[C@H](CS)NC(=O)[C@H](CO)NC(=O)CNC(=O)[C@H](CCCCN)NC(=O)CN)C(=O)O` [WAMP-C] (H-GKGSCQSQCRGCR-OH), the IC50 (in general, the concentration needed to halve the response being measured) in the test with B. sorokiniana [1] is 429.5 ± 51.5 µg/mL (≈ 314 µM); with A. alternata [2], 550.4 ± 41.3 µg/mL (≈ 402 µM); with C. cucumerinum it was 5.3 ± 0.1 µg/mL (≈ 3.87 µM); in the test with F. oxysporum it was greater than 700 µg/mL; with F. culmorum [3], greater than 700 µg/mL; in the test with P. nodorum [4], 329.6 ± 7.9 µg/mL (≈ 241 µM). Moreover, the “Inhibition of conidium germination” value in the test with F. culmorum [3] turned out to be 23%.

Turning to `CC(C)C[C@H](N)C(=O)N[C@@H](CS)C(=O)N[C@@H](CS)C(=O)NCC(=O)N[C@@H](CCCCN)C(=O)N[C@@H](Cc1ccc(O)cc1)C(=O)NCC(=O)N[C@@H](Cc1ccccc1)C(=O)N[C@@H](CS)C(=O)NCC(=O)N[C@@H](CO)C(=O)NCC(=O)O` [WAMP-G1] (H-LCCGKYGFCGSG-OH), the IC50 was 273.1 ± 45.7 µg/mL (≈ 229 µM) in the test on B. sorokiniana [1]; greater than 700 µg/mL in the test with A. alternata [2]; greater than 700 µg/mL with C. cucumerinum; greater than 700 µg/mL with F. oxysporum; greater than 700 µg/mL in the test on F. culmorum [3]; greater than 700 µg/mL with P. nodorum [4].

Turning to `C[C@H](NC(=O)[C@H](CC(=O)O)NC(=O)CNC(=O)[C@H](CO)NC(=O)CNC(=O)[C@H](CS)NC(=O)[C@H](Cc1ccccc1)NC(=O)CNC(=O)[C@H](Cc1ccc(O)cc1)NC(=O)[C@H](CCCCN)NC(=O)CNC(=O)[C@H](CS)NC(=O)[C@@H](N)CS)C(=O)N[C@@H](Cc1ccc(O)cc1)C(=O)N[C@@H](CS)C(=O)O` [WAMP-G2] (H-CCGKYGFCGSGDAYC-OH; N-terminus and C-terminus assumed), the concentration for half-maximal inhibition (IC50) with B. sorokiniana [1] (setting [11]) is 195.2 ± 36.8 µg/mL (≈ 127 µM); in the test with A. alternata [2] (setting [11]), 145.6 ± 29.4 µg/mL (≈ 94.9 µM); in the test with C. cucumerinum (setting [11]), 410.2 ± 29.1 µg/mL (≈ 267 µM); with F. oxysporum (setting [11]), 391.2 ± 34.2 µg/mL (≈ 255 µM); in the test on F. culmorum [3], greater than 700 µg/mL; with F. avenaceum [5] it was 602.8 ± 3.1 µg/mL (≈ 393 µM). This compound had an IC50 in the test on P. nodorum [4] (setting [11]) of 424.1 ± 12.1 µg/mL (≈ 277 µM). Also, the “Inhibition of conidium germination” value in the test on A. alternata [2] (setting [12]) is 83.8%; in the test on F. culmorum [3], 26.2%. In addition, the “FFCI (Fractional Fungicidal Concentration Index)” value was 0.13 with B. sorokiniana [6]; 0.02 in the test with F. culmorum [7]; 0.03 in the test on F. avenaceum [8]; 0.05 in the test on A. alternata [9] (effective tebuconazole–WAMP-2 fragment composition, FFCI ≤ 0.5 = synergy, MFC by probit analysis); 0.04 in the test on P. nodorum [10]. In addition, in the test with A. alternata [9] (compositions 100 + 0.05 and 100 + 0.1 µg/mL (two of nine)), the “type of peptide–fungicide interaction” value is reported as “additive effect”.

Regarding `C[C@H](N)C(=O)N[C@@H](CCC(N)=O)C(=O)N[C@@H](CCCNC(=N)N)C(=O)N[C@@H](CS)C(=O)NCC(=O)N[C@@H](CC(=O)O)C(=O)N[C@@H](CCC(N)=O)C(=O)N[C@@H](C)C(=O)N[C@@H](CCCNC(=N)N)C(=O)NCC(=O)N[C@@H](C)C(=O)N[C@@H](CCCCN)C(=O)N[C@@H](CS)C(=O)O` [WAMP-N] (H-AQRCGDQARGAKC-OH), the IC50 with B. sorokiniana [1] was 72.9 ± 12.4 µg/mL (≈ 53.5 µM); in the test with A. alternata [2], 102.6 ± 19.6 µg/mL (≈ 75.2 µM); in the test on C. cucumerinum it was 280.2 ± 29.7 µg/mL (≈ 205 µM); with F. oxysporum, 238.0 ± 32.4 µg/mL (≈ 175 µM); in the test on F. culmorum [3], 332.4 ± 26.1 µg/mL (≈ 244 µM); in the test on F. avenaceum [5], greater than 700 µg/mL. The half-inhibitory concentration (IC50) with P. nodorum [4] was 220.2 ± 13.5 µg/mL (≈ 161 µM). In the test on F. avenaceum [5] (setting [12]), the “Inhibition of conidium germination” value was found to be 40.4%.
